According to article PMC11900313, “Exploring the Potential of Coumarin Derivatives on Serotonin Receptors 5-HT1A and 5HT2A” (International Journal of Molecular Sciences, 2025):
pKi: −log10 of the molar value. Values joined by “and” are separate entries in the source; they are usually repeats but may differ in a detail not shown here. Equal values may be shown once. Read-outs that look alike come from different tables or passages of the source.

Columns and labels:
5-HT1A receptor [1] = tested on: 5-HT1A receptor; set-up: method as in PMID 36769117; conditions: previous study; cited from earlier work
5-HT1A receptor [2] = conditions: earlier study; cited from earlier work
5-HT2A receptor [3] = conditions: earlier study; cited from earlier work
5-HT1A receptor [4] = molecular target: T1, 5-HT1A receptor (Rattus norvegicus, UniProt P19327); experiment: Antagonist activity at 5-HT1A receptors, [35S]GTPγS assay with 8-OH-DPAT stimulation; assay type: biochemical, Sprague–Dawley rats; conditions: for IC50: antagonist activity, [35S]GTPγS
T1 construct: from tissue; host or cells: Sprague-Dawley rat hippocampus membranes
T1 sequence (P19327 1-422): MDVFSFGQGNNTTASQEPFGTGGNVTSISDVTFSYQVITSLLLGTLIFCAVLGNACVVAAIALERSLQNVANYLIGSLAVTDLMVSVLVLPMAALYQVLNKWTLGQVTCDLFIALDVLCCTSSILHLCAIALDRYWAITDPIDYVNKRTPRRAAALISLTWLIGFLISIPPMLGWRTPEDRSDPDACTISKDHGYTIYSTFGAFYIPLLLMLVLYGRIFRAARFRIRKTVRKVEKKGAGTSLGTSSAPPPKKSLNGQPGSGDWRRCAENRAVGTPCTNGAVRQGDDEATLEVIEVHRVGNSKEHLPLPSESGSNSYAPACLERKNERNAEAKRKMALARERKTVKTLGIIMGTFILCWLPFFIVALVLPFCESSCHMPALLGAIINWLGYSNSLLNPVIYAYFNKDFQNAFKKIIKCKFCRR
Description: (§1) Sprague–Dawley rats were decapitated under isoflurane anesthesia. Brains were rapidly removed and placed on ice. Hippocampi (for the 5-HT1A assay) or frontal cortices (for the 5-HT2A assay) were dissected on a Petri dish. The tissue from 10 rats was homogenized in 30 vol. homogenization buffer (50 mM Tris-HCl, pH = 4.7, 1 mM EDTA, 1mM dithiothreitol) with a hand held Teflon-glass homogenizer. The homogenate was centrifuged at 48,000× g at 4 °C for 15 min. The pellet was suspended and homogenized in homogenization buffer and incubated for 10 min at 36 °C. The centrifugation and suspension steps were repeated twice. The final pellet was homogenized in 5 vol. 50 mM Tris-HCl, pH = 7.4 buffer and stored at −80 °C for no longer than 6 months.
Then, hippocampal membrane homogenates (15 μg/mL) were added to each well, and the mixture was incubated for 90 min. at 37 °C in a total volume of 250 µL. Non-specific binding was determined with 10 µM of unlabeled GTPγS. The reaction was terminated by vacuum filtration onto GF/C Unifilter Plates (Revvity, Waltham, MA, USA) presoaked with 50 mM Tris-HCl (pH = 7.4) for 1 h with the FilterMate Harvester® (Revvity, Waltham, MA, USA). The samples were then rapidly washed with 2 mL of 50 mM Tris-HCl (pH = 7.4) buffer. The Unifilter plates were dried overnight at RT. After drying, 35 µL of EcoScint-20 scintillant (Revvity, Waltham, MA, USA) was added to each well. Radioactivity was counted in a Trilux MicroBeta^2 counter (Revvity, Waltham, MA, USA). […] The curves were fitted with a one-site non-linear regression model to determine inhibitory potency (IC50). The experiments were repeated twice.

5-HT2A receptor [5] = molecular target: T2, 5-HT2A receptor (Rattus norvegicus, UniProt P14842); experiment: 5-HT2A competitive radioligand binding assay with [3H]ketanserin, frontal cortex membranes; set-up: species or system Sprague–Dawley rats
T2 construct: from tissue; host or cells: Sprague-Dawley rat frontal cortex membranes
Description: as §1
(§2) Non-specific binding was determined with 10 μM serotonin. The final DMSO concentration in the assay was 5%. After incubation, the reaction mixture was deposited with the FilterMate-96 Harvester (Revvity, Waltham, MA, USA) onto Unifilter® GF/C plates (Revvity, Waltham, MA, USA) presoaked in 0.4% PEI for 1 h. Each well was washed with 2 mL of 50 mM Tris-HCl (pH 7.4) buffer to separate bound ligands from free. Plates were left to dry overnight. Then, 35 µL of Microscint-20 scintillation fluid (Revvity, Waltham, MA, USA) was added to each filter well and left to equilibrate for 2 h. Filter-bound radioactivity was counted in a MicroBeta^2 LumiJet scintillation counter (Revvity, Waltham, MA, USA). Binding curves were fitted with one site non-linear regression. The binding affinity (Ki) for each compound was calculated from the EC50 values with the Cheng–Prusoff equation from two separate experiments.

5-HT1A receptor [6] = molecular target: T1, 5-HT1A receptor; experiment: 5-HT1A competitive radioligand binding assay with [3H]8-OH-DPAT, hippocampal membranes; set-up: species or system Sprague–Dawley rats; conditions: [3H]8-OH-DPAT, hippocampal membranes; 95% CI in brackets
Description: as §1, §2

[7] = 1 µM 8-OH-DPAT, 95% CI in brackets, read-out: 5-HT1A IC50 (µM, 95% CI)
[8] = read-out: 5-HT2A Ki (nM, 95% CI)

T2 sequence (P14842 whole entry): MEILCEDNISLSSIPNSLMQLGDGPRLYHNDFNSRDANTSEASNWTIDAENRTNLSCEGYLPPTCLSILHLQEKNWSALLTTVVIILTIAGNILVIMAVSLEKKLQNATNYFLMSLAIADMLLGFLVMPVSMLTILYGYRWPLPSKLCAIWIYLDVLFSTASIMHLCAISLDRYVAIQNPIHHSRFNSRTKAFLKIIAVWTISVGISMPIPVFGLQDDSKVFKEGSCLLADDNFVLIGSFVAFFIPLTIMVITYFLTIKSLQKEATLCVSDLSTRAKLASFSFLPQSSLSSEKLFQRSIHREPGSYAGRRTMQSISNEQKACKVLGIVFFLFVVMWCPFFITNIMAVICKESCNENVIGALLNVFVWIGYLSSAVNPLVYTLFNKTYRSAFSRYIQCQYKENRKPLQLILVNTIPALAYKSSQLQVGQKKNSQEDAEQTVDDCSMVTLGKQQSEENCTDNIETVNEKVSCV

In the case of `COc1cccc(N2CCN(CCCCOc3cc4oc(=O)cc(C)c4cc3C(C)=O)CC2)c1` [6-acetyl-7-{4-[4-(3-methoxyphenyl)piperazin-1-yl]butoxy}-4-methylcoumarin], the “5-HT1A receptor activity (agonist/antagonist)” value (5-HT1A receptor [1]) is listed as “agonist”.

In the case of `COc1ccccc1N1CCN(CCCOc2ccc3c(C)cc(=O)oc3c2C(C)=O)CC1` [8-acetyl-7-{3-[4-(2-methoxyphenyl)piperazin-1-yl]propoxy}-4-methylcoumarin], the pKi (5-HT1A receptor [2]) is listed as 9.22 and the pKi (5-HT2A receptor [3]) is listed as 8.10.

`COc1ccccc1N1CCN(CC(O)COc2cc3oc(=O)cc(C)c3cc2C(C)=O)CC1` (centres unmarked) [Compound 1, 6-Acetyl-7-(2-hydroxy-3-(4-(2-methoxyphenyl)piperazin-1-yl)propoxy)-4-methyl-2H-chromen-2-one] showed an IC50 (5-HT1A receptor [4]; [7]) of 331 µM, a Ki (5-HT2A receptor [5]; [8]) of 1850 nM and a Ki (5-HT1A receptor [6]) of 243 nM.

In the case of `COc1cccc(N2CCN(CC(O)COc3cc4oc(=O)cc(C)c4cc3C(C)=O)CC2)c1` (centres unmarked) [Compound 2, 6-Acetyl-7-(2-hydroxy-3-(4-(3-methoxyphenyl)piperazin-1-yl)propoxy)-4-methyl-2H-chromen-2-one], the IC50 (5-HT1A receptor [4]; [7]) was 58.5 µM and 59 µM, the Ki (5-HT2A receptor [5]; [3H]ketanserin, frontal cortex membranes, 95% CI in brackets) was 83 nM and the Ki (5-HT1A receptor [6]) was 196 nM.

With `COc1ccccc1N1CCN(CC(O)COc2cc(=O)oc3ccccc23)CC1` (centres unmarked) [Compound 3, 4-(2-Hydroxy-3-(4-(2-methoxyphenyl)piperazin-1-yl)propoxy)-2H-chromen-2-one] the IC50 (5-HT1A receptor [4]; [7]) was 67.8 µM and 68 µM, the Ki (5-HT2A receptor [5]; [8]) was 4010 nM and the Ki (5-HT1A receptor [6]) was 243 nM.

With `COc1cccc(N2CCN(CC(O)COc3cc(=O)oc4ccccc34)CC2)c1` (centres unmarked) [Compound 4, 4-(2-Hydroxy-3-(4-(3-methoxyphenyl)piperazin-1-yl)propoxy)-2H-chromen-2-one] the IC50 (5-HT1A receptor [4]; [7]) was 10 µM, the Ki (5-HT2A receptor [5]; [8]) was 315 nM and the Ki (5-HT1A receptor [6]) was 190 nM.

For `COc1ccccc1N1CCN(CC(O)COc2cc(C)cc3oc(=O)cc(C)c23)CC1` (centres unmarked) [Compound 5, 5-(2-Hydroxy-3-(4-(2-methoxyphenyl)piperazin-1-yl)propoxy)-4,7-dimethyl-2H-chromen-2-one], the IC50 (5-HT1A receptor [4]; [7]) was 14.7 µM, the Ki (5-HT2A receptor [5]; [8]) was 1180 nM and the Ki (5-HT1A receptor [6]) was 90 nM.

For `COc1cccc(N2CCN(CC(O)COc3cc(C)cc4oc(=O)cc(C)c34)CC2)c1` (centres unmarked) [Compound 6, 5-(2-Hydroxy-3-(4-(3-methoxyphenyl)piperazin-1-yl)propoxy)-4,7-dimethyl-2H-chromen-2-one], the IC50 (5-HT1A receptor [4]; [7]) was 6.5 µM, the Ki (5-HT2A receptor [5]; [8]) was 662 nM and the Ki (5-HT1A receptor [6]) was 176 nM.

In the case of `COc1ccccc1N1CCN(CC(O)COc2c(C(C)=O)c(C)cc3oc(=O)cc(C)c23)CC1` (centres unmarked) [Compound 7, 6-Acetyl-5-(2-hydroxy-3-(4-(2-methoxyphenyl)piperazin-1-yl)propoxy)-4,7-dimethyl-2H-chromen-2-one], the IC50 (5-HT1A receptor [4]; [7]) was 2.4 µM, the Ki (5-HT2A receptor [5]; [8]) was 4150 nM and the Ki (5-HT1A receptor [6]) was 90 nM.

Compound `COc1cccc(N2CCN(CC(O)COc3c(C(C)=O)c(C)cc4oc(=O)cc(C)c34)CC2)c1` (centres unmarked) [Compound 8, 6-Acetyl-5-(2-hydroxy-3-(4-(3-methoxyphenyl)piperazin-1-yl)propoxy)-4,7-dimethyl-2H-chromen-2-one] has an IC50 (5-HT1A receptor [4]; [7]) of 16.2 µM, a Ki (5-HT2A receptor [5]; [8]) of 115 nM and a Ki (5-HT1A receptor [6]) of 1780 nM.

In the case of `COc1ccccc1N1CCN(CC(O)COc2ccc3c(C)cc(=O)oc3c2)CC1` (centres unmarked) [Compound 9, 7-(2-Hydroxy-3-(4-(2-methoxyphenyl)piperazin-1-yl)propoxy)-4-methyl-2H-chromen-2-one], the IC50 (5-HT1A receptor [4]; [7]) was 2.42 µM and 2.4 µM, the Ki (5-HT2A receptor [5]; [8]) was 291 nM and the Ki (5-HT1A receptor [6]) was 245 nM.

For `COc1cccc(N2CCN(CC(O)COc3ccc4c(C)cc(=O)oc4c3)CC2)c1` (centres unmarked) [Compound 10, 7-(2-Hydroxy-3-(4-(3-methoxyphenyl)piperazin-1-yl)propoxy)-4-methyl-2H-chromen-2-one], the IC50 (5-HT1A receptor [4]; [7]) was 89.5 µM, the Ki (5-HT2A receptor [5]; [8]) was 260 nM and the Ki (5-HT1A receptor [6]) was 87 nM.

In the case of `COc1ccccc1N1CCN(CC(O)COc2ccc3c(C)cc(=O)oc3c2C(C)=O)CC1` (centres unmarked) [Compound 11, 8-Acetyl-7-(2-hydroxy-3-(4-(2-methoxyphenyl)piperazin-1-yl)propoxy)-4-methyl-2H-chromen-2-one], the IC50 (5-HT1A receptor [4]; given in nM in text, read-out: 5-HT1A IC50) was 0.043 µM, the 5-HT1A functional profile (5-HT1A receptor [4]; functional assays) was “significant 5-HT1A antagonistic profile” and the Ki (5-HT2A receptor [5]; [8]) was 6160 nM.

Work on `COc1cccc(N2CCN(CC(O)COc3ccc4c(C)cc(=O)oc4c3C(C)=O)CC2)c1` (centres unmarked) [Compound 12, 8-Acetyl-7-(2-hydroxy-3-(4-(3-methoxyphenyl)piperazin-1-yl)propoxy)-4-methyl-2H-chromen-2-one] yielded a Ki (5-HT2A receptor [5]; [8]) of 67 nM and a Ki (5-HT1A receptor [6]) of 264 nM.

Work on `COc1ccccc1N1CCN(CC(O)COc2ccc3ccc(=O)oc3c2)CC1` (centres unmarked) [Compound 13, 7-(2-Hydroxy-3-(4-(2-methoxyphenyl)piperazin-1-yl)propoxy)-2H-chromen-2-one] yielded an IC50 (5-HT1A receptor [4]; [7]) of 1.43 µM, a Ki (5-HT2A receptor [5]; [8]) of 18 nM and a Ki (5-HT1A receptor [6]) of 222 nM.

Compound `COc1cccc(N2CCN(CC(O)COc3ccc4ccc(=O)oc4c3)CC2)c1` (centres unmarked) [Compound 14, 7-(2-Hydroxy-3-(4-(3-methoxyphenyl)piperazin-1-yl)propoxy)-2H-chromen-2-one] has an IC50 (5-HT1A receptor [4]; [7]) of 112 µM, a Ki (5-HT2A receptor [5]; [8]) of 68 nM and a Ki (5-HT1A receptor [6]) of 135 nM.
